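Cultured in 96-well plates, cells were exposed to test compound for 48 hours across five concentrations. The concentration for 50% growth inhibition is given as GI50. Definition used: TGI = concentration required for complete inhibition of growth.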
Key:
Experiment in all cases: DTP human tumour cell line panel, 48 h
786-0 renal = test system: 786-0 renal
A498 renal = test system: A498 renal
A549 NSCLC = test system: A549 NSCLC
ACHN renal = test system: ACHN renal
BT-549 breast = test system: BT-549 breast
CAKI-1 renal = test system: CAKI-1 renal
COLO 205 colon = test system: COLO 205 colon
DU-145 prostate = test system: DU-145 prostate
EKVX NSCLC = test system: EKVX NSCLC
HCC-2998 colon = test system: HCC-2998 colon
HCT-116 colon = test system: HCT-116 colon
HCT-15 colon = test system: HCT-15 colon
HL-60(TB) leukemia = test system: HL-60(TB) leukemia
HOP-62 NSCLC = test system: HOP-62 NSCLC
HOP-92 NSCLC = test system: HOP-92 NSCLC
HT29 colon = test system: HT29 colon
IGROV1 ovarian = test system: IGROV1 ovarian
KM12 colon = test system: KM12 colon
LOX IMVI melanoma = test system: LOX IMVI melanoma
M14 melanoma = test system: M14 melanoma
MALME-3M melanoma = test system: MALME-3M melanoma
MCF7 breast = test system: MCF7 breast
MDA-MB-231 breast = test system: MDA-MB-231 breast
MDA-MB-435 = test system: MDA-MB-435
NCI-H226 lung = test system: NCI-H226 lung
NCI-H23 lung = test system: NCI-H23 lung
NCI-H460 lung = test system: NCI-H460 lung
NCI-H522 lung = test system: NCI-H522 lung
NCI/ADR-RES ovarian = test system: NCI/ADR-RES ovarian
OVCAR-3 ovarian = test system: OVCAR-3 ovarian
OVCAR-4 ovarian = test system: OVCAR-4 ovarian
OVCAR-5 ovarian = test system: OVCAR-5 ovarian
OVCAR-8 ovarian = test system: OVCAR-8 ovarian
PC-3 prostate = test system: PC-3 prostate
RPMI-8226 leukemia = test system: RPMI-8226 leukemia
SF-268 CNS = test system: SF-268 CNS
SF-295 CNS = test system: SF-295 CNS
SF-539 CNS = test system: SF-539 CNS
SK-MEL-28 melanoma = test system: SK-MEL-28 melanoma
SK-MEL-5 melanoma = test system: SK-MEL-5 melanoma
SK-OV-3 ovarian = test system: SK-OV-3 ovarian
SN12C renal = test system: SN12C renal
SNB-19 CNS = test system: SNB-19 CNS
SNB-75 CNS = test system: SNB-75 CNS
SW-620 colon = test system: SW-620 colon
T-47D breast = test system: T-47D breast
TK-10 renal = test system: TK-10 renal
U251 CNS = test system: U251 CNS
UACC-257 melanoma = test system: UACC-257 melanoma
UACC-62 melanoma = test system: UACC-62 melanoma
UO-31 renal = test system: UO-31 renal
CCRF-CEM leukemia = test system: CCRF-CEM leukemia
K-562 leukemia = test system: K-562 leukemia
MOLT-4 leukemia = test system: MOLT-4 leukemia
RXF 393 renal = test system: RXF 393 renal
SK-MEL-2 melanoma = test system: SK-MEL-2 melanoma

COc1cc(C=C2c3ccccc3C(=O)c3ccccc32)ccc1OCCCCOc1cc2c(cc1OC)C(=O)N1CCCC1C=N2 (stereo not given)
GI50 (786-0 renal): 448 nM
TGI (786-0 renal): 1110 nM
GI50 (A498 renal): 454 nM
TGI (A498 renal): 1610 nM
GI50 (A549 NSCLC): 785 nM
TGI (A549 NSCLC): 3220 nM
GI50 (ACHN renal): 525 nM
TGI (ACHN renal): 1690 nM
GI50 (BT-549 breast): 91.5 nM
TGI (BT-549 breast): 542 nM
GI50 (CAKI-1 renal): 314 nM
TGI (CAKI-1 renal): 1020 nM
GI50 (COLO 205 colon): 469 nM
TGI (COLO 205 colon): 1670 nM
GI50 (DU-145 prostate): 208 nM
TGI (DU-145 prostate): 479 nM
GI50 (EKVX NSCLC): 1140 nM
TGI (EKVX NSCLC): 3170 nM
GI50 (HCC-2998 colon): 342 nM
TGI (HCC-2998 colon): 816 nM
GI50 (HCT-116 colon): 174 nM
TGI (HCT-116 colon): 409 nM
GI50 (HCT-15 colon): 377 nM
TGI (HCT-15 colon): 1500 nM
GI50 (HL-60(TB) leukemia): 142 nM
TGI (HL-60(TB) leukemia): 389 nM
GI50 (HOP-62 NSCLC): 579 nM
TGI (HOP-62 NSCLC): 1310 nM
GI50 (HOP-92 NSCLC): 244 nM
TGI (HOP-92 NSCLC): 1050 nM
GI50 (HT29 colon): 278 nM
TGI (HT29 colon): 1460 nM
GI50 (IGROV1 ovarian): 321 nM
TGI (IGROV1 ovarian): 804 nM
GI50 (KM12 colon): 227 nM
TGI (KM12 colon): 608 nM
GI50 (LOX IMVI melanoma): 279 nM
TGI (LOX IMVI melanoma): 890 nM
GI50 (M14 melanoma): 440 nM
TGI (M14 melanoma): 1470 nM
GI50 (MALME-3M melanoma): 399 nM
TGI (MALME-3M melanoma): 1590 nM
GI50 (MCF7 breast): 304 nM
TGI (MCF7 breast): 1640 nM
GI50 (MDA-MB-231 breast): 603 nM
TGI (MDA-MB-231 breast): 11800 nM
GI50 (MDA-MB-435): 227 nM
TGI (MDA-MB-435): 601 nM
GI50 (NCI-H226 lung): 1260 nM
TGI (NCI-H226 lung): 3130 nM
GI50 (NCI-H23 lung): 337 nM
TGI (NCI-H23 lung): 1490 nM
GI50 (NCI-H460 lung): 703 nM
TGI (NCI-H460 lung): 2350 nM
GI50 (NCI-H522 lung): 612 nM
TGI (NCI-H522 lung): 9950 nM
GI50 (NCI/ADR-RES ovarian): 1620 nM
TGI (NCI/ADR-RES ovarian): 8830 nM
GI50 (OVCAR-3 ovarian): 200 nM
TGI (OVCAR-3 ovarian): 458 nM
GI50 (OVCAR-4 ovarian): 456 nM
TGI (OVCAR-4 ovarian): 8450 nM
GI50 (OVCAR-5 ovarian): 581 nM
TGI (OVCAR-5 ovarian): 1450 nM
GI50 (OVCAR-8 ovarian): 310 nM
TGI (OVCAR-8 ovarian): 1260 nM
GI50 (PC-3 prostate): 274 nM
TGI (PC-3 prostate): 3560 nM
GI50 (RPMI-8226 leukemia): 101 nM
TGI (RPMI-8226 leukemia): 354 nM
GI50 (SF-268 CNS): 242 nM
TGI (SF-268 CNS): 726 nM
GI50 (SF-295 CNS): 765 nM
TGI (SF-295 CNS): 2340 nM
GI50 (SF-539 CNS): 352 nM
TGI (SF-539 CNS): 1390 nM
GI50 (SK-MEL-28 melanoma): 192 nM
TGI (SK-MEL-28 melanoma): 430 nM
GI50 (SK-MEL-5 melanoma): 782 nM
TGI (SK-MEL-5 melanoma): 2050 nM
GI50 (SK-OV-3 ovarian): 1410 nM
TGI (SK-OV-3 ovarian): 3890 nM
GI50 (SN12C renal): 458 nM
TGI (SN12C renal): 1880 nM
GI50 (SNB-19 CNS): 1020 nM
TGI (SNB-19 CNS): 2560 nM
GI50 (SNB-75 CNS): 391 nM
TGI (SNB-75 CNS): 1800 nM
GI50 (SW-620 colon): 214 nM
TGI (SW-620 colon): 501 nM
GI50 (T-47D breast): 356 nM
TGI (T-47D breast): 1780 nM
GI50 (TK-10 renal): 302 nM
TGI (TK-10 renal): 896 nM
GI50 (U251 CNS): 249 nM
TGI (U251 CNS): 704 nM
GI50 (UACC-257 melanoma): 1090 nM
TGI (UACC-257 melanoma): 2550 nM
GI50 (UACC-62 melanoma): 407 nM
TGI (UACC-62 melanoma): 1470 nM
GI50 (UO-31 renal): 656 nM
TGI (UO-31 renal): 2090 nM

COc1cc(/C=C/c2cc(/C=C/c3ccc(O)c(OC)c3)n(C(=O)Cc3ccccc3)n2)ccc1O
GI50 (786-0 renal): 916 nM
TGI (786-0 renal): 4530 nM
GI50 (A498 renal): 2410 nM
TGI (A498 renal): 6930 nM
GI50 (A549 NSCLC): 2800 nM
TGI (A549 NSCLC): 16600 nM
GI50 (ACHN renal): 419 nM
TGI (ACHN renal): 29200 nM
GI50 (BT-549 breast): 758 nM
TGI (BT-549 breast): 3930 nM
GI50 (CAKI-1 renal): 730 nM
TGI (CAKI-1 renal): 38400 nM
GI50 (CCRF-CEM leukemia): 333 nM
TGI (CCRF-CEM leukemia): > 100000 nM
GI50 (DU-145 prostate): 1480 nM
TGI (DU-145 prostate): 8630 nM
GI50 (HCC-2998 colon): 2900 nM
TGI (HCC-2998 colon): 11300 nM
GI50 (HCT-116 colon): 491 nM
TGI (HCT-116 colon): 6760 nM
GI50 (HCT-15 colon): 388 nM
TGI (HCT-15 colon): 3790 nM
GI50 (HT29 colon): 1660 nM
TGI (HT29 colon): 4500 nM
GI50 (K-562 leukemia): 434 nM
TGI (K-562 leukemia): > 100000 nM
GI50 (KM12 colon): 461 nM
TGI (KM12 colon): > 100000 nM
GI50 (LOX IMVI melanoma): 609 nM
TGI (LOX IMVI melanoma): 9020 nM
GI50 (M14 melanoma): 399 nM
TGI (M14 melanoma): 2640 nM
GI50 (MALME-3M melanoma): 644 nM
TGI (MALME-3M melanoma): 4980 nM
GI50 (MCF7 breast): 333 nM
TGI (MCF7 breast): 2520 nM
GI50 (MDA-MB-231 breast): 1450 nM
TGI (MDA-MB-231 breast): 20900 nM
GI50 (MDA-MB-435): 218 nM
TGI (MDA-MB-435): 587 nM
GI50 (MOLT-4 leukemia): 464 nM
TGI (MOLT-4 leukemia): > 100000 nM
GI50 (NCI-H226 lung): 2670 nM
TGI (NCI-H226 lung): 9880 nM
GI50 (NCI-H23 lung): 1560 nM
TGI (NCI-H23 lung): 6590 nM
GI50 (NCI-H460 lung): 526 nM
TGI (NCI-H460 lung): 10400 nM
GI50 (NCI-H522 lung): 323 nM
TGI (NCI-H522 lung): 1490 nM
GI50 (NCI/ADR-RES ovarian): 792 nM
TGI (NCI/ADR-RES ovarian): 10900 nM
GI50 (OVCAR-3 ovarian): 1120 nM
TGI (OVCAR-3 ovarian): 5270 nM
GI50 (OVCAR-4 ovarian): 1110 nM
TGI (OVCAR-4 ovarian): 6390 nM
GI50 (OVCAR-5 ovarian): 2770 nM
TGI (OVCAR-5 ovarian): 80000 nM
GI50 (OVCAR-8 ovarian): 1850 nM
TGI (OVCAR-8 ovarian): 16700 nM
GI50 (PC-3 prostate): 915 nM
TGI (PC-3 prostate): 4340 nM
GI50 (RPMI-8226 leukemia): 411 nM
TGI (RPMI-8226 leukemia): 2240 nM
GI50 (RXF 393 renal): 1140 nM
TGI (RXF 393 renal): 3480 nM
GI50 (SF-295 CNS): 2010 nM
TGI (SF-295 CNS): 6480 nM
GI50 (SF-539 CNS): 475 nM
TGI (SF-539 CNS): 3910 nM
GI50 (SK-MEL-2 melanoma): 516 nM
TGI (SK-MEL-2 melanoma): 2510 nM
GI50 (SK-MEL-28 melanoma): 1210 nM
TGI (SK-MEL-28 melanoma): 15100 nM
GI50 (SK-MEL-5 melanoma): 532 nM
TGI (SK-MEL-5 melanoma): 3170 nM
GI50 (SK-OV-3 ovarian): 690 nM
TGI (SK-OV-3 ovarian): 2640 nM
GI50 (SN12C renal): 1530 nM
TGI (SN12C renal): 44500 nM
GI50 (SNB-19 CNS): 2430 nM
TGI (SNB-19 CNS): > 100000 nM
GI50 (SNB-75 CNS): 545 nM
TGI (SNB-75 CNS): 3450 nM
GI50 (SW-620 colon): 684 nM
TGI (SW-620 colon): 10900 nM
GI50 (T-47D breast): 1330 nM
TGI (T-47D breast): 5170 nM
GI50 (TK-10 renal): 2580 nM
TGI (TK-10 renal): 9090 nM
GI50 (U251 CNS): 1210 nM
TGI (U251 CNS): 11200 nM
GI50 (UACC-257 melanoma): 2680 nM
TGI (UACC-257 melanoma): 11500 nM
GI50 (UACC-62 melanoma): 883 nM
TGI (UACC-62 melanoma): 4760 nM
GI50 (UO-31 renal): 466 nM
TGI (UO-31 renal): 4310 nM
